Source: PubChem BioAssay (NCI)
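Where inhibition never reached the appropriate level, the endpoint shown equals the highest concentration tested. Otherwise, values were interpolated linearly from a five-concentration, 48-hour dose response in 96-well plates. GI50: concentration for 50% inhibition of growth. TGI is the concentration that stops growth completely.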

Columns and labels:
Assay in all cases: growth of human tumour cells (NCI), 48 h
CAKI-1 renal = system: CAKI-1 renal
RXF 393 renal = system: RXF 393 renal
SF-295 CNS = system: SF-295 CNS
UACC-62 melanoma = system: UACC-62 melanoma
SNB-19 CNS = system: SNB-19 CNS
UACC-257 melanoma = system: UACC-257 melanoma
T-47D breast = system: T-47D breast
OVCAR-3 ovarian = system: OVCAR-3 ovarian
HT29 colon = system: HT29 colon
CCRF-CEM leukemia = system: CCRF-CEM leukemia

In the case of CC(=O)N1CCN(CCOc2ccc(C3CCN(C4=Nn5c(nnc5C(F)(F)F)CC4)CC3)cc2)CC1, the GI50 (CAKI-1 renal) is reported as 3.27 µM, the TGI (CAKI-1 renal) is reported as over 100 µM and the GI50 (RXF 393 renal) is reported as 19.4 µM. The TGI (RXF 393 renal) was over 66 µM, the GI50 (SF-295 CNS) was 12.2 µM and the TGI (SF-295 CNS) was over 85.9 µM. For the same compound, the GI50 (UACC-62 melanoma) was 2.84 µM, the TGI (UACC-62 melanoma) was over 100 µM and the GI50 (SNB-19 CNS) was 22.4 µM. The TGI (SNB-19 CNS) was over 100 µM, the GI50 (UACC-257 melanoma) was 26 µM and the TGI (UACC-257 melanoma) was over 100 µM. The GI50 (T-47D breast) was 5.21 µM, the TGI (T-47D breast) was over 100 µM and the GI50 (OVCAR-3 ovarian) was 20.8 µM. The TGI (OVCAR-3 ovarian) was over 100 µM, the GI50 (HT29 colon) was 9.08 µM and the TGI (HT29 colon) was over 100 µM. The GI50 (CCRF-CEM leukemia) was 20.4 µM and the TGI (CCRF-CEM leukemia) was over 100 µM.
CCCCOc1ccc(/C=N/Nc2cc(C)nc3ccc(Cl)cc23)cc1 showed a GI50 (CAKI-1 renal) of 1.68 µM, a TGI (CAKI-1 renal) of 3.07 µM and a GI50 (RXF 393 renal) of 1.41 µM. For the same compound, the TGI (RXF 393 renal) was 2.74 µM, the GI50 (SF-295 CNS) was 1.66 µM and the TGI (SF-295 CNS) was 3.1 µM. It also gave a GI50 (UACC-62 melanoma) of 1.61 µM, a TGI (UACC-62 melanoma) of 3.02 µM and a GI50 (SNB-19 CNS) of 1.81 µM. For the same compound, the TGI (SNB-19 CNS) was 3.3 µM, the GI50 (UACC-257 melanoma) was 1.61 µM and the TGI (UACC-257 melanoma) was 3.11 µM. The GI50 (T-47D breast) was 1.73 µM, the TGI (T-47D breast) was 3.77 µM and the GI50 (OVCAR-3 ovarian) was 2.03 µM. The TGI (OVCAR-3 ovarian) was 3.78 µM, the GI50 (HT29 colon) was 1.24 µM and the TGI (HT29 colon) was 2.61 µM. For the same compound, the GI50 (CCRF-CEM leukemia) was 1.86 µM and the TGI (CCRF-CEM leukemia) was 4.48 µM.
O=C(CCl)Nc1cc(O)c2c(c1)C(=O)c1cccc(O)c1C2=O showed a GI50 (CAKI-1 renal) of 1.56 µM, a TGI (CAKI-1 renal) of 2.93 µM and a GI50 (RXF 393 renal) of 1.72 µM. It also gave a TGI (RXF 393 renal) of 3.5 µM, a GI50 (SF-295 CNS) of 2.28 µM and a TGI (SF-295 CNS) of 7.69 µM. For the same compound, the GI50 (UACC-62 melanoma) was 1.47 µM, the TGI (UACC-62 melanoma) was 3.84 µM and the GI50 (SNB-19 CNS) was 1.87 µM. For the same compound, the TGI (SNB-19 CNS) was 4.15 µM, the GI50 (UACC-257 melanoma) was 2.52 µM and the TGI (UACC-257 melanoma) was 6.41 µM. The GI50 (T-47D breast) was 1.19 µM, the TGI (T-47D breast) was 3.61 µM and the GI50 (OVCAR-3 ovarian) was 1.23 µM. For the same compound, the TGI (OVCAR-3 ovarian) was 2.49 µM, the GI50 (HT29 colon) was 1.99 µM and the TGI (HT29 colon) was 3.89 µM. For the same compound, the GI50 (CCRF-CEM leukemia) was 0.314 µM and the TGI (CCRF-CEM leukemia) was 3.24 µM.
O=S(=O)(O)ONC1=NCCN1 showed a GI50 (CAKI-1 renal) of over 100 µM, a TGI (CAKI-1 renal) of over 100 µM and a GI50 (RXF 393 renal) of 66.7 µM. The TGI (RXF 393 renal) was over 100 µM, the GI50 (SF-295 CNS) was over 100 µM and the TGI (SF-295 CNS) was over 100 µM. For the same compound, the GI50 (UACC-62 melanoma) was over 100 µM, the TGI (UACC-62 melanoma) was over 100 µM and the GI50 (SNB-19 CNS) was over 100 µM. The TGI (SNB-19 CNS) was over 100 µM, the GI50 (UACC-257 melanoma) was over 100 µM and the TGI (UACC-257 melanoma) was over 100 µM. For the same compound, the GI50 (T-47D breast) was 38.8 µM, the TGI (T-47D breast) was over 100 µM and the GI50 (OVCAR-3 ovarian) was over 100 µM. For the same compound, the TGI (OVCAR-3 ovarian) was over 100 µM, the GI50 (HT29 colon) was 58.1 µM and the TGI (HT29 colon) was over 100 µM. It also gave a GI50 (CCRF-CEM leukemia) of 43.4 µM and a TGI (CCRF-CEM leukemia) of over 100 µM.
